What all share (type): cell-based
In assay [1] the test system is YAP/TAZ-TEAD transcription. Description: Reporter gene assay for measuring the inhibition of YAP/TAZ-TEAD transcription (TEAD-responsive element luciferase reporter in Hek293T cells). The note with it: Hek293T cells transiently transfected with TEAD-responsive element luciferase reporter, 24 hours incubation. Summed up: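 Hek293T cells transiently transfected with TEAD-responsive luciferase reporter, exposed to compound for 24 h at 37° C/5% CO2, then read by luminescence. Percent inhibition normalized to vehicle (0%) and positive control inhibitor (100%); EC50 reported as activity ranges.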

Assay [2] has as its system NCI-H226 mesothelioma cell line. Description: Mesothelioma cell line proliferation assay, NCI-H226. The note with it: NCI-H226, 6 days with compound, cell viability by ATPlite. The procedure:
(§1) Mesothelioma cell lines, NCI-H226 and NCI-H2052 (all sourced from the ATCC cell culture collection) are plated in 96-well plates (Corning® 96 Well White Polystyrene Microplate clear flat bottom, white polystyrene (TC-Treated)), at 1500 cells/well in full medium (RPMI 1640 ATCC modification with L-glutamine, HEPES, Phenol Red, Sodium Pyruvate, High glucose, Low sodium bicarbonate and 10% fetal bovine serum). Cells are incubated overnight at 37° C. in an incubator with 5% CO2. Then compounds, dissolved in DMSO, are added in dose-response. Cells are incubated with compound dilutions for another 6 days at 37° C. in an incubator with 5% CO2. Cell viability is quantitated using the ATPlite kit (Perkin-Elmer) and the luminescence is read-out using an Envision instrument (Perkin-Elmer). The amount of relative light units produced using the ATPlite kit is used to calculated percent of inhibition.
(§2) The activities of example compounds tested are depicted in the table below. The activity ranges A, B and C refer to EC50 values in the mesothelioma cell line proliferation assay as described as follows: “A”: EC50 <1 μM; “B” : 1 μM EC50 ≤10 μM and “C” : EC50 >10 μM. NT: not tested.

In assay [3] the test system is NCI-H2052 mesothelioma cell line. In words: Mesothelioma cell line proliferation assay, NCI-H2052. The note with it: NCI-H2052, 6 days with compound, cell viability by ATPlite. The procedure: as §1, §2

Each structure is given as a SMILES string. pEC50: −log10 of the molar value. Bounds are passed on as bounds.

With `C=CC(=O)NCC1CN(c2ccc(C(F)(F)F)cn2)c2ccnn2C1` (single isomer, unassigned) [Cpd. No. 008-En2, (R)- or (S)-N-((4-(5-(trifluoromethyl)pyridin-2-yl)-4,5,6,7-tetrahydropyrazolo[1,5-a]pyrimidin-6-yl)methyl)acrylamide], the negative logarithm of the EC50 (pEC50) in assay [1], in assay [2] and in assay [3] was > 6.00 throughout.

Consider `C=CC(=O)NCC1CN(c2ccc(OC(F)(F)F)cc2)c2ccnn2C1` (single isomer, unassigned) [Cpd. No. 011-En1, (R)- or (S)-N-((4-(4-(trifluoromethoxy)phenyl)-4,5,6,7-tetrahydropyrazolo[1,5-a]pyrimidin-6-yl)methyl)acrylamide], for which the pEC50 in assay [1], in assay [2] and in assay [3] was > 6.00 in each case.

Consider `C=CC(=O)NCC1CN(c2ccc(OC(F)(F)F)cc2)c2ccnn2C1` (single isomer, unassigned) [Cpd. No. 011-En2, (R)- or (S)-N-((4-(4-(trifluoromethoxy)phenyl)-4,5,6,7-tetrahydropyrazolo[1,5-a]pyrimidin-6-yl)methyl)acrylamide], for which the results for the negative-log EC50 (pEC50) in assay [1], in assay [2] and in assay [3] were > 6.00, > 6.00 and < 5.00, respectively.

With `C=CC(=O)NCC1CN(c2ccc(OC(F)F)cc2)c2ccnn2C1` (single isomer, unassigned) [Cpd. No. 012-En1, (R)- or (S)-N-((4-(4-(difluoromethoxy)phenyl)-4,5,6,7-tetrahydropyrazolo[1,5-a]pyrimidin-6-yl)methyl)acrylamide], the pEC50 in assay [1], in assay [2] and in assay [3] was > 6.00 throughout.

With `C=CC(=O)NCC1CN(c2ccc(OC(F)F)cc2)c2ccnn2C1` (single isomer, unassigned) [Cpd. No. 012-En2, (R)- or (S)-N-((4-(4-(difluoromethoxy)phenyl)-4,5,6,7-tetrahydropyrazolo[1,5-a]pyrimidin-6-yl)methyl)acrylamide], the figures for the pEC50 in assay [1], in assay [2] and in assay [3] were > 6.00, > 6.00 and < 5.00, respectively.

For `C=CC(=O)NCC1CN(c2ccc(C(C)C)cc2)c2ccnn2C1` (single isomer, unassigned) [Cpd. No. 013-En1, (R)- or (S)-N-((4-(4-isopropylphenyl)-4,5,6,7-tetrahydropyrazolo[1,5-a]pyrimidin-6-yl)methyl)acrylamide], the pEC50 in assay [1], in assay [2] and in assay [3] was > 6.00 each time.

Take `C=CC(=O)NCC1CN(c2ccc(C(C)C)cc2)c2ccnn2C1` (single isomer, unassigned) [Cpd. No. 013-En2, (R)- or (S)-N-((4-(4-ispropylphenyl)-4,5,6,7-tetrahydropyrazolo[1,5-a]pyrimidin-6-yl)methyl)acrylamide]: the pEC50 in assay [1] is > 6.00; in assay [2] it was > 6.00; in assay [3] it was 5.00 to 6.00.

`C=CC(=O)NCC1CN(c2ccc(C(C)(C)C)cc2)c2ccnn2C1` (single isomer, unassigned) [Cpd. No. 014-En1, (R)- or (S)-N-((4-(4-(tert-butyl)phenyl)-4,5,6,7-tetrahydropyrazolo[1,5-a]pyrimidin-6-yl)methyl)acrylamide]: the pEC50 in assay [1] (Homo sapiens, HEK-293T, 24 h) is > 6.00; in assay [2] (Homo sapiens, NCI-H226, 144 h), > 6.00; in assay [3] (Homo sapiens, NCI-H2052, 144 h) it was > 6.00.

Consider `C=CC(=O)NCC1CN(c2ccc(C(F)(F)F)cc2F)c2ccnn2C1` (single isomer, unassigned) [Cpd. No. 016-En1, (R)- or (S)-N-((4-(2-fluoro-4-(trifluoromethyl)phenyl)-4,5,6,7-tetrahydropyrazolo[1,5-a]pyrimidin-6-yl)methyl)acrylamide], for which the pEC50 in assay [1], in assay [2] and in assay [3] was > 6.00 each time.

With `C=CC(=O)NCC1CN(c2ccc(C(F)(F)F)cc2F)c2ccnn2C1` (single isomer, unassigned) [Cpd. No. 016-En2, (R)- or (S)-N-((4-(2-fluoro-4-(trifluoromethyl)phenyl)-4,5,6,7-tetrahydropyrazolo[1,5-a]pyrimidin-6-yl)methyl)acrylamide], the results for the pEC50 in assay [1], in assay [2] and in assay [3] were > 6.00, > 6.00 and < 5.00, respectively.

With `C=CC(=O)NCC1CN(c2ccc(OC(F)(F)F)cc2F)c2ccnn2C1` (single isomer, unassigned) [Cpd. No. 019-En1, (R)- or (S)-N-((4-(2-fluoro-4-(trifluoromethoxy)phenyl)-4,5,6,7-tetrahydropyrazolo[1,5-a]pyrimidin-6-yl)methyl)acrylamide], the pEC50 in assay [1] (Homo sapiens, HEK-293T, 24 h) was > 6.00; in assay [2] (Homo sapiens, NCI-H226, 144 h), > 6.00; in assay [3] it was > 6.00.

Turning to `C=CC(=O)NCC1CN(c2ccc(OC(F)(F)F)cc2F)c2ccnn2C1` (single isomer, unassigned) [Cpd. No. 019-En2, (R)- or (S)-N-((4-(2-fluoro-4-(trifluoromethoxy)phenyl)-4,5,6,7-tetrahydropyrazolo[1,5-a]pyrimidin-6-yl)methyl)acrylamide], the pEC50 is > 6.00 in assay [1], > 6.00 in assay [2] and < 5.00 in assay [3].

As for `C=CC(=O)NCC1CN(c2ccc(SC(F)(F)F)cc2)c2ccnn2C1` (single isomer, unassigned) [Cpd. No. 020-En1, (R)- or (S)-N-((4-(4-((trifluoromethyl)thio)phenyl)-4,5,6,7-tetrahydropyrazolo[1,5-a]pyrimidin-6-yl)methyl)acrylamide], the pEC50 in assay [1] is > 6.00; in assay [2], > 6.00; in assay [3] (Homo sapiens, NCI-H2052, 144 h) it was > 6.00.

`C=CC(=O)NCC1CN(c2ccc(SC(F)(F)F)cc2)c2ccnn2C1` (single isomer, unassigned) [Cpd. No. 020-En2, (R)- or (S)-N-((4-(4-((trifluoromethyl)thio)phenyl)-4,5,6,7-tetrahydropyrazolo[1,5-a]pyrimidin-6-yl)methyl)acrylamide]: the results for the pEC50 in assay [1], in assay [2] and in assay [3] were > 6.00, < 5.00 and 5.00 to 6.00, respectively.

`C=CC(=O)NCC1CN(c2ccc(C3CC3)cc2)c2ccnn2C1` (single isomer, unassigned) [Cpd. No. 022-En1, (R)- or (S)-N-((4-(4-cyclopropylphenyl)-4,5,6,7-tetrahydropyrazolo[1,5-a]pyrimidin-6-yl)methyl)acrylamide]: the pEC50 in assay [1] (Homo sapiens, HEK-293T, 24 h) was > 6.00; in assay [2] (Homo sapiens, NCI-H226, 144 h), > 6.00; in assay [3], > 6.00.

In the case of `C=CC(=O)NCC1CN(c2ccc(C3CC3)cc2)c2ccnn2C1` (single isomer, unassigned) [Cpd. No. 022-En2, (R)- or (S)-N-((4-(4-cyclopropylphenyl)-4,5,6,7-tetrahydropyrazolo[1,5-a]pyrimidin-6-yl)methyl)acrylamide], the pEC50 in assay [1] was > 6.00; in assay [2], > 6.00; in assay [3] it was < 5.00.

`C=CC(=O)NCC1CN(c2ccc(S(F)(F)(F)(F)F)cc2)c2ccnn2C1` (single isomer, unassigned) [Cpd. No. 023-En1, (R)- or (S)-N-((4-(4-(pentafluoro-l6-sulfaneyl)phenyl)-4,5,6,7-tetrahydropyrazolo[1,5-a]pyrimidin-6-yl)methyl)acrylamide]: the pEC50 in assay [1], in assay [2] and in assay [3] was > 6.00 throughout.

With `C=CC(=O)NCC1CN(c2ccc(S(F)(F)(F)(F)F)cc2)c2ccnn2C1` (single isomer, unassigned) [Cpd. No. 023-En2, (R)- or (S)-N-((4-(4-(pentafluoro-l6-sulfaneyl)phenyl)-4,5,6,7-tetrahydropyrazolo[1,5-a]pyrimidin-6-yl)methyl)acrylamide], the pEC50 in assay [1], in assay [2] and in assay [3] was > 6.00 in each case.

`C=CC(=O)NC[C@@H]1CN(Cc2ccccc2)c2ccnn2C1` (single isomer, unassigned) [Cpd. No. 049-En1, (R)- or (S)-((4-benzyl-4,5,6,7-tetrahydropyrazolo[1,5-a]pyrimidin-6-yl)methyl)acrylamide]: the pEC50 is < 4.70 in assay [1], 5.00 to 6.00 in assay [2] and 5.00 to 6.00 in assay [3].

`C=CC(=O)NC1CN(c2ccc(C(F)(F)F)cc2F)c2ccnn2C1` (single isomer, unassigned) [Cpd. No. 065-En1, (R)- or (S)-N-(4-(2-fluoro-4-(trifluoromethyl)phenyl)-4,5,6,7-tetrahydropyrazolo[1,5-a]pyrimidin-6-yl)acrylamide]: the pEC50 in assay [1] (Homo sapiens, HEK-293T, 24 h) was > 6.00; in assay [2] (Homo sapiens, NCI-H226, 144 h), > 6.00; in assay [3] (Homo sapiens, NCI-H2052, 144 h), > 6.00.

The record behind these values is US20230279016A1, “Tetrahydropyrazolopyrimidines and Related Analogs for Inhibiting YAP/TAZ-TEAD” (THE KATHOLIEKE UNIVERSITEIT LEUVEN, priority 2021, published 2023).
